In assay [1] the target is T1, Serine/threonine-protein kinase mTOR (Homo sapiens, UniProt P42345). As to the kind of experiment: Inhibition of mTOR (unknown origin).
For assay [2], the target named is Histone deacetylase 1 (Homo sapiens, UniProt Q13547). As to the kind of experiment: Inhibition of HDAC1 (unknown origin).
Assay [3] deals with A549. As to the kind of experiment: Antiproliferative activity against human A549 cells assessed as reduction in cell viability. In kind it is functional, cell-based.
The subject of assay [4] is HCT-116. As to the kind of experiment: Antiproliferative activity against human HCT-116 cells assessed as reduction in cell viability. In kind it is functional, cell-based.
Assay [5] concerns MV4-11. As to the kind of experiment: Antiproliferative activity against human MV4-11 cells harboring FLT3-ITD mutant assessed as reduction in cell viability. Type of assay: functional, cell-based.
In assay [6] the target is T1, Serine/threonine-protein kinase mTOR. As to the kind of experiment: Inhibition of mTOR complexes in human MV4-11 cells assessed as suppression of phosphorylation of S6 ribosomal at Ser235/236 residues at 300 nM by Western blot analysis relative to control. In kind it is cell-based.
The target is the same in assay [7]. As to the kind of experiment: Inhibition of mTOR complexes in human MV4-11 cells assessed as reduction in p-AKT(Ser473) protein level at 300 nM by Western blot analysis relative to control. Type of assay: cell-based.
The target of assay [8] is T2, Histone deacetylase (Homo sapiens) (UniProt Q13547+O15379+Q9UBN7+Q92769+Q9UQL6+Q8WUI4+Q9BY41+Q96DB2+P56524+Q9UKV0+Q969S8). As to the kind of experiment: Inhibition of HDAC in human MV4-11 cells assessed as increase in acetylation of histone H3 (ac-H3 K9) by Western blot analysis relative to control. In kind it is cell-based.
Assay [9] deals with T2, Histone deacetylase (Homo sapiens). As to the kind of experiment: Inhibition of HDAC in human MV4-11 cells assessed as increase in acetylation of alpha-tubulin at Lys40 residue by Western blot analysis relative to control. In kind it is cell-based.
For assay [10], the target named is T3, Protein deacetylase HDAC6 (Homo sapiens, UniProt Q9UBN7).
T3 sequence (Q9UBN7 whole entry): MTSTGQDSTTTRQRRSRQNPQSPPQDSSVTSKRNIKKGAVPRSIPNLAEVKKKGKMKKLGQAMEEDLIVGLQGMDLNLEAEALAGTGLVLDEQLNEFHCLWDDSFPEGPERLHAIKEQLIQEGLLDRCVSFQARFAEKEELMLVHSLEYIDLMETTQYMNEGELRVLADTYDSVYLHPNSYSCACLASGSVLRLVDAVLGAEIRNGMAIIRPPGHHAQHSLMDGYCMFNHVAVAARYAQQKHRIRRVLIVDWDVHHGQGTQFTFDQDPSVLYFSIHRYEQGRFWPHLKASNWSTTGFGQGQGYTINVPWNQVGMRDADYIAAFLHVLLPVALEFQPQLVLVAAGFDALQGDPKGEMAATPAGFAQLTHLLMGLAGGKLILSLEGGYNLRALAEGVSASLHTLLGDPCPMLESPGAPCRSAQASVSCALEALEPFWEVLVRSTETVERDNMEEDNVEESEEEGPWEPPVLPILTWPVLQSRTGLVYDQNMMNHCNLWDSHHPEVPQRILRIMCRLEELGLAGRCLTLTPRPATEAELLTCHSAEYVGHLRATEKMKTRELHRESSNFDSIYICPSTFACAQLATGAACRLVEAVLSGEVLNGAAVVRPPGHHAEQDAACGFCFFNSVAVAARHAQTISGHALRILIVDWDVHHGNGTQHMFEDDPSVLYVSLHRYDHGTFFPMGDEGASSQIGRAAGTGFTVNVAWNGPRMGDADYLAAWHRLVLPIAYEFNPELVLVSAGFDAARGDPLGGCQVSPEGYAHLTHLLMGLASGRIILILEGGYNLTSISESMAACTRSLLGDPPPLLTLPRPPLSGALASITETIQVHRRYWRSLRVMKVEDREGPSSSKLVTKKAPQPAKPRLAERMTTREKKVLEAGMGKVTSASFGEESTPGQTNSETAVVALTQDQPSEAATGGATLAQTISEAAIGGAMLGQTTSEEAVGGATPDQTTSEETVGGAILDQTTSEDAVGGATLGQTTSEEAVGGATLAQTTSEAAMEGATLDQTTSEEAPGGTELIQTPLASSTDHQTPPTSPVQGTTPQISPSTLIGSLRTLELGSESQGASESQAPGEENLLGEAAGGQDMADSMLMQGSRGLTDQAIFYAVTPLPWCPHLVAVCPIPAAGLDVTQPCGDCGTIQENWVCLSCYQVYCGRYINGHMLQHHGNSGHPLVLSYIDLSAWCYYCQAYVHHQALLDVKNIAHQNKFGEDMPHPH
As to the kind of experiment: Inhibition of HDAC6 (unknown origin).

Assay [11] deals with T4, Histone deacetylase 8 (Homo sapiens, UniProt Q9BY41).
T4 sequence (Q9BY41 whole entry): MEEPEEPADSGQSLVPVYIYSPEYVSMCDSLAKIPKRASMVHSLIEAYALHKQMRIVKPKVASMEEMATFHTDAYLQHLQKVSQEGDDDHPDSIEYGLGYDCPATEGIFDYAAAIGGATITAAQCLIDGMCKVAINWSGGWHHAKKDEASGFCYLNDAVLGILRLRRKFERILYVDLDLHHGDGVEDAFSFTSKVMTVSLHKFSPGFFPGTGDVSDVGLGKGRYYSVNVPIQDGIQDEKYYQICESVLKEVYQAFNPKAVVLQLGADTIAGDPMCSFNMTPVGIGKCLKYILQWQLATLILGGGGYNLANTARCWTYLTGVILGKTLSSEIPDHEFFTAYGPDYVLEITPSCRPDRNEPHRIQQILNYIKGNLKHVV
As to the kind of experiment: Inhibition of HDAC8 (unknown origin).

Assay [12] deals with T5, Histone deacetylase 11 (Homo sapiens, UniProt Q96DB2).
T5 sequence (Q96DB2 whole entry): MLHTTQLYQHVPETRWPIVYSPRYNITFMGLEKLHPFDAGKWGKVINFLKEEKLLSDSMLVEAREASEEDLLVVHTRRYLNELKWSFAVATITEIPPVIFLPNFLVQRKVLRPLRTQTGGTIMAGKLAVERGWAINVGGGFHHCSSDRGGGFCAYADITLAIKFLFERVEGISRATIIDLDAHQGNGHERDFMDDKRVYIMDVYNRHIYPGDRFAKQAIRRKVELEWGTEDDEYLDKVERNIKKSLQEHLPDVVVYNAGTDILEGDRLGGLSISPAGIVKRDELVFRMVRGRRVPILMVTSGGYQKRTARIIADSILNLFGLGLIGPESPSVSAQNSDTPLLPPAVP
As to the kind of experiment: Inhibition of HDAC11 (unknown origin).

Active and inactive are the calls of the source. The rule behind the calls is not given here. Some results are limits rather than exact numbers.

Chain of Histone deacetylase 1 (Q13547 whole entry): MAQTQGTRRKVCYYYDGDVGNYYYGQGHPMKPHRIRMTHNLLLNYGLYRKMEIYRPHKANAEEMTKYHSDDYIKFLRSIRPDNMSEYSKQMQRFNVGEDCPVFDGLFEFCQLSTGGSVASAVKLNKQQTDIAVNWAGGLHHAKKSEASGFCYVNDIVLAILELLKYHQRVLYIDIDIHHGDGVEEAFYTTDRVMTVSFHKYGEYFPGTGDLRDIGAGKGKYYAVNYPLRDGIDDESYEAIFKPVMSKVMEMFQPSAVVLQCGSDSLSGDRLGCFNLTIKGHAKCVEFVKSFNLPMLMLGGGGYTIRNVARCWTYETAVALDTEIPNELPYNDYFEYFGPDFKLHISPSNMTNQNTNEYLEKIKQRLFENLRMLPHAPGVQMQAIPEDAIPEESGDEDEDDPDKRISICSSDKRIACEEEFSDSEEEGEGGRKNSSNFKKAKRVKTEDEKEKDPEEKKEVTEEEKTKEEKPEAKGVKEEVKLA

Turning to `Nc1ccc(-c2nn(CCCCCCC(=O)NO)c3ncnc(N)c23)cn1`, the figures for the IC50 in [1] and in [2] were 0.151 µM and 0.0073 µM, respectively.
For the molecule `Nc1ccc(-c2nn(CCCCC(=O)NO)c3ncnc(N)c23)cn1`, the half-maximal inhibitory concentration (IC50) in assay [1] and in [2] was over 1 µM throughout.
As for `Nc1ncc(-c2nn(CCCCCCC(=O)NO)c3ncnc(N)c23)cn1`, the concentration for half-maximal inhibition (IC50) in assay [1] was over 1 µM; in [2], 0.011 µM.
Turning to `Nc1nc2cc(-c3nn(CC4CCN(C(=O)c5ccc(C(=O)NO)cc5)CC4)c4ncnc(N)c34)ccc2o1`, the IC50 in assay [1] worked out at 0.00084 µM; in assay [2] it was 0.012 µM.
`Nc1ncc(-c2nn(CCCCC(=O)NO)c3ncnc(N)c23)cn1`: the IC50 was over 1 µM in assay [1] and 0.479 µM in [2].
Turning to `Nc1nc2cc(-c3nn(CC4CCN(c5ncc(C(=O)NO)cn5)CC4)c4ncnc(N)c34)ccc2o1`, the IC50 is 0.00049 µM in [1]; 0.00091 µM in assay [2]; 2.16 µM in [3]; 3.85 µM in [4]; 1.74 µM in assay [5]; 0.086 µM in [10]. Moreover, the values for the concentration for half-maximal inhibition (IC50) in assay [11] and in assay [12] were 0.027 µM and over 1 µM, respectively. The inhibition entry in assay [6] and in assay [7] was “Active” throughout. For the same molecule, the inhibition result in [8] and in assay [9] was “Dose-Dependent Effect” each time.
Turning to `Nc1nc2cc(-c3nn(Cc4ccc(C(=O)NO)cc4)c4ncnc(N)c34)ccc2o1`, the figures for the IC50 in assay [1] and in assay [2] were 0.018 µM and 0.005 µM, respectively.
With `Nc1nc2cc(-c3nn(CC4CCN(C(=O)c5ccc(C(=O)NO)s5)CC4)c4ncnc(N)c34)ccc2o1`, the IC50 was 0.0004 µM in assay [1]; 0.0059 µM in [2]; 5.9 µM in [3]; over 10 µM in assay [4]; 5.21 µM in assay [5].
Take `Nc1nc2cc(-c3nn(Cc4ccc(C(=O)NO)o4)c4ncnc(N)c34)ccc2o1`: the values for the IC50 in [1] and in [2] were 0.018 µM and over 1 µM, respectively.
The matching figures for `Nc1ncnc2c1c(-c1cnc3ccccc3c1)nn2CCCCCCC(=O)NO`: 0.619 µM and 0.0041 µM.
The like results for `Nc1nc2cc(-c3nn(Cc4ccc(C(=O)NO)cn4)c4ncnc(N)c34)ccc2o1` were, in that order, 0.025 µM and 0.011 µM.
`Nc1nc2cc(-c3nn(CCCCCCC(=O)NO)c4ncnc(N)c34)ccc2o1`: the IC50 in [1] came out at 0.0017 µM; in assay [2], 0.00078 µM; in assay [3] it was 2.86 µM; in assay [4], 3.78 µM; in assay [5] it was 4.13 µM; in assay [10], 0.0015 µM. For the same molecule, the results for the IC50 in assay [11] and in [12] were 0.021 µM and over 1 µM, respectively.
For the molecule `Nc1ncnc2c1c(-c1cnc3ccccc3c1)nn2CCCCC(=O)NO`, the figures for the IC50 in [1] and in [2] were 0.677 µM and 0.065 µM, respectively.
The like results for `Nc1nc2cc(-c3nn(CCCCC(=O)NO)c4ncnc(N)c34)ccc2o1` were, in that order, 0.00376 µM and 0.083 µM.
`Nc1nc2cc(-c3nn(CC4CCN(C(=O)CCCCC(=O)NO)CC4)c4ncnc(N)c34)ccc2o1`: the figures for the IC50 in assay [1] and in assay [2] were 0.0019 µM and 0.065 µM, respectively.
The matching figures for `Nc1nc2cc(-c3nn(Cc4ccc(C(=O)NO)s4)c4ncnc(N)c34)ccc2o1`: 0.027 µM and 0.012 µM.

The values are drawn from ChEMBL document CHEMBL4808220, “Discovery of novel pyrazolopyrimidine derivatives as potent mTOR/HDAC bi-functional inhibitors via pharmacophore-merging strategy” (Bioorg Med Chem Lett, 2021).
